Assay results taken from PMC10982501, “Synthesis and biological evaluation of novel benzothiazole derivatives as potential anticancer and antiinflammatory agents” (Frontiers in Chemistry, 2024).

Legend:
[1] = test system: H1299 cells; assay: MTT cell proliferation assay, H1299; format: cell-based, human; conditions: Homo sapiens, NCI-H1299, 48 h; for IC50: read-out: IC50 (mean ± SD) H1299; for inhibition at 10 µM: read-out: H1299 cells inhibition rate
Method: (§1) Beas-2b, A431, A549 and H1299 cells were cultured in 96-well plates (5 × 10^3 cells/well) for 16 h, respectively. Subsequently, positive compound 4i and 25 newly synthesized compounds were added at a final concentration of 10 μM or gradient concentrations (0.01, 0.1, 0.5, 1, 5 and 10 μM), co-incubated with the cells for 48 h. MTT (M8180, Solarbio) solutions (5 mg/mL) were then added and incubated for 4 h in the dark. Then, formazan crystals were dissolved with DMSO (D8371, Solarbio), followed by shaking on a shaker (DRAGONLAB, China) for 10 min. Finally, absorbance at 490 nm wavelength for each well was measured with Microplate reader (Molecular Devices, United States) ([Tang et al., 2020]; [Lee et al., 2021]). The results are expressed as mean ± SD from three independent experiments. Cells inhibition rates or IC50 values were calculated using GraphPad Prism 9.5.0.

[2] = test system: A549 cells; assay: Flow cytometry analysis of cell cycle, A549; format: cell-based, human; conditions: A549, 24 h
Method: (§2) The A431 and A549 cells were cultured in 6-well plates (1×10^5 cells/mL) for 16 h. Subsequently, they were treated with different concentrations (1, 2 and 4 μM) of either B7 or 4i (4 μM) for 24 h. Cells were collected, mixed by adding 75% ethanol with shaking on a vortex shaker, and placed in the refrigerator at 4°C for overnight fixation. The cells were incubated with PI-Raze solution for 15 min at room temperature, protected from light, according to the instructions of BD Cycletest Plus DNA Reagent Kit (340242, BD), and detected by FACS Calibur flow cytometry ([Oh et al., 2023]), and subsequent data analysis was performed using FlowJo 10.6.2.

[3] = test system: A431 cells; assay: MTT cell proliferation assay, A431; format: cell-based, human; conditions: Homo sapiens, A-431, 48 h; for IC50: read-out: IC50 (mean ± SD) A431; for inhibition at 10 µM: read-out: A431 cells inhibition rate
Method: as §1

[4] = test system: non-small cell lung cancer cell line HOP-92; parameters: method as in Noolvi et al., 2012; conditions: ref Noolvi et al., 2012; cited from earlier work
[5] = test system: A549 cells; assay: MTT cell proliferation assay, A549; format: cell-based, human; conditions: Homo sapiens, A549, 48 h; for IC50: read-out: IC50 (mean ± SD) A549; for inhibition at 10 µM: read-out: A549 cells inhibition rate
Method: as §1

[6] = test system: A431 cells; assay: Flow cytometry analysis of cell cycle, A431; format: cell-based, human; conditions: A431, 24 h
Method: as §2

[7] = test system: TNF-α; assay: ELISA of TNF-α in LPS-stimulated RAW264.7 cells; format: cell-based, mouse; conditions: 10 μM, RAW264.7, LPS, 24 h, vs blank control
Method: (§3) RAW264.7 cells were cultured in 6-well plates (2×10^5 cells/well) for 24 h and treated with 25 newly synthesized compounds (final concentration at 10 μM) for 30 min, respectively. Subsequently, the cells were stimulated with 1 μL of LPS (500 ng/mL) (L8880, Solarbio). After 24 h, the supernatant was collected and analyzed using an ELISA kit (EK206 and EK182, MULTISCIENCES) to quantify the levels of inflammatory cytokines IL-6 and TNF-α ([Li et al., 2021]).

[8] = test system: IL-6; assay: ELISA of IL-6 in LPS-stimulated RAW264.7 cells; format: cell-based, mouse; conditions: 10 μM, RAW264.7, LPS, 24 h, vs blank control
Method: as §3

[9] = test system: Beas-2b cells; assay: MTT cell proliferation and toxicity assay, Beas-2b; format: cell-based, human; conditions: Homo sapiens, BEAS-2B, 48 h, read-out: Beas-2b cells inhibition rate
Method: as §1

[10] = Oil-water partition coefficient (log P) measurement; format: physicochemical; conditions: n-octanol/water, room temperature
Method: The partition coefficient between n-octanol and water (log Po/w) is the classical descriptor for Lipophilicity ([Daina et al., 2017]). The test methodology followed previously published protocols ([Wang et al., 2021]). At room temperature, two large Erlenmeyer flasks were taken and filled with n-octanol and water, respectively. The flasks were placed in a constant temperature shaker at 150 rpm for 24 h to saturate the solvents. The mixtures were then transferred to separating funnels under normal pressure to obtain water-saturated n-octanol and n-octanol-saturated water for subsequent use. The target compound (2 mg) was accurately weighed and placed in a 2 mL brown volumetric flask. Anhydrous methanol was added to ultrasonically dissolve the compound, and the mixture was diluted to volume and thoroughly shaken to prepare a 1 mg/mL stock solution. The stock solution was further diluted to obtain 1, 1.5, 2, 2.5, 5 and 10 μg/mL reference solutions for construction of a standard curve using a UV-visible spectrophotometer. An excess amount of the analyte was dissolved in water-saturated n-octanol, and the mixture was shaken at 150 rpm for 24 h at constant temperature to obtain a saturated solution. The saturated solution was allowed to stand, centrifuged, and 1 mL of the supernatant was transferred to a 4 mL centrifuge tube. N-octanol saturated water (1 mL) was added, and the mixture was shaken at 150 rpm for 24 h at constant temperature. After standing for 8 h, the mixture was centrifuged. Appropriate amounts of the n-octanol phase before and after equilibration were diluted with methanol, and concentrations were determined from the standard curve to obtain C0 and C1. The concentration in the n-octanol saturated aqueous phase, Cw, was calculated as Cw = C0 - C1. Thus, log Po/w = […].

[11] = test system: A431 cells; assay: Wound healing analysis of cell migration, A431; format: cell-based, human; conditions: A431, 4 μM, 48 h, compared to 4i
Method: (§4) The A431 and A549 cells were cultured in 6-well plates (5×10^5 cells/well). When the cell confluency reached approximately 90%, used a sterile 10 μL pipette tip to create three parallel scratches evenly. Subsequently, rinsed with PBS to remove floating cells, and then treated with B7 and 4i at final concentrations of 4 μM. Captured images using a microscope camera system (Nikon, JPN) at 0 and 48 h post-treatment ([Xu et al., 2023]).

[12] = test system: A431 cells; assay: Flow cytometry analysis of cell apoptosis, A431; format: cell-based, human; conditions: A431, 1, 2 and 4 μM, 24 h
Method: (§5) The A431 and A549 cells were cultured in 6-well plates (1×10^5 cells/mL) for 16 h. Subsequently, cells were treated with different concentrations (1, 2 and 4 μM) of either B7 or 4i for 24 h. Then, the cells were collected, washed, and stained with the FITC Annexin V Apoptosis Detection Kit I (556547, BD) ([Jiang et al., 2017]). Sample testing was performed using a FACS Calibur Flow Cytometer (BD, United States), and subsequent data analysis was performed using FlowJo 10.6.2.

[13] = test system: common anti-tumor receptor kinases; assay: Activity of common anti-tumor receptor kinases
[14] = test system: ERK; assay: Western blot, ERK phosphorylation; format: cell-based, human; conditions: A431 and A549 cells, 1, 5 and 10 μM, 2 h
Method: (§6) The A431 and A549 cells were cultured in 6-well plates (2×10^5 cells/well) for 2 h and treated with different concentrations of B7(1, 5, and 10 μM) or 4i (10 μM). The corresponding cells were collected, washed with PBS (P1020, Solarbio), and lysed with RIPA buffer (R0010, Solarbio) to extract the total proteins. The extracted protein was loaded, subjected to SDS-PAGE electrophoresis (Bio-Rad) ([Xu et al., 2023]), and then the protein was transferred to a PDVF membrane (IPVH00010, Millipore) and incubated in the corresponding Primary Antibody AKT (9272, Cell Signaling Technology), phospho-AKT (4058, Cell Signaling Technology), ERK (A4782, ABclonal Technology), phospho-ERK (AP0974, ABclonal Technology) and GAPDH (AB0037, Abways Technology) overnight. Then, the Primary Antibody was recovered and enzyme-labeled secondary antibodies Goat Anti-Rabbit IgG HRP (H + L) (A0208, Beyotime Technology) were used. Finally, Imaging was performed on a gel Imaging System (Bio-Rad, United States) using the Ultra-sensitive ECL Chemiluminescence Assay Kit (P0018AS, Beyotime Technology).

[15] = test system: AKT; assay: Western blot, AKT phosphorylation; format: cell-based, human; conditions: A431 and A549 cells, 1, 5 and 10 μM, 2 h
Method: as §6

[16] = test system: A549 cells; assay: Wound healing analysis of cell migration, A549; format: cell-based, human; conditions: A549, 4 μM, 48 h, compared to 4i
Method: as §4

[17] = test system: A549 cells; assay: Flow cytometry analysis of cell apoptosis, A549; format: cell-based, human; conditions: A549, 1, 2 and 4 μM, 24 h
Method: as §5

[18] = test system: human cancer cell lines; parameters: method as in Mortimer et al., 2006; conditions: particularly non-small cell lung, colon and breast cancer lines; ref Mortimer et al., 2006; cited from earlier work

SMILES	IC50 [1] [nM]	IC50 [3] [nM]	IC50 [5] [nM]	logP [10]	cell cycle arrest, in words [2]	cell cycle arrest, in words [6]	effect on TNF-α expression [7]	inhibition at 10 µM [1] [%]	inhibition at 10 µM [3] [%]	inhibition at 10 µM [5] [%]	effect on IL-6 expression [8]	inhibition at 10 µM [9] [%]	also measured
Clc1cccc(Cl)c1Nc1nc2cccc(Cl)c2s1 [4i, 7-chloro-N-(2,6-dichlorophenyl) benzo[d] thiazole-2-amine, reference compound]	2480 ± 530	2000 ± 410	1090 ± 320		G2 phase cell cycle arrest effect	G2 phase cell cycle arrest effect							anticancer activity against HOP-92, in words [4]: promising anticancer activity
CCOC(=O)COc1ccccc1-c1nc2ccccc2s1 [A1, Ethyl 2-(2-(benzo[d]thiazol-2-yl)phenoxy)acetate]				2.35 ± 0.21			significant inhibitory effects	49.5 ± 0.84	45.6 ± 1.21	42.3 ± 1.15	significant inhibitory effects	10.2 ± 0.92	
COc1ccc(-c2nc3cc(F)ccc3s2)cc1OC [PMX610, 2-(3,4-dimethoxyphenyl)-5-fluorobenzothiazole]													in vitro anti-tumor properties in human cancer cell lines, in words [18]: potent and selective in vitro anti-tumor properties

The next lines start with results.

IC50 [1] [nM]	IC50 [3] [nM]	IC50 [5] [nM]	logP [10]	SMILES	cell cycle arrest, in words [2]	cell cycle arrest, in words [6]	effect on TNF-α expression [7]	inhibition at 10 µM [1] [%]	inhibition at 10 µM [3] [%]	inhibition at 10 µM [5] [%]	effect on IL-6 expression [8]	inhibition at 10 µM [9] [%]	also measured
1680 ± 120	1510 ± 200	960 ± 240	3.25 ± 0.24	O=[N+]([O-])c1ccc(CNc2nc3ccc(Cl)cc3s2)cc1 [B7, 6-chloro-N-(4-nitrobenzyl)benzo[d]thiazol-2-amine]	G2 phase cell cycle arrest effect	G2 phase cell cycle arrest effect	significant inhibitory effects				significant inhibitory effects	16.6 ± 1.36	migration inhibitory effect, in words [11]: slightly surpassed that of 4i; apoptosis rate, in words [12]: gradual increase in the apoptosis rate; impact on common anti-tumor receptor kinases, in words [13]: minimal impact; ERK protein phosphorylation, in words [14]: markedly inhibit; AKT protein phosphorylation, in words [15]: markedly inhibit; inhibitory effect on cell migration, in words [16]: stronger inhibitory effect; apoptosis rate, in words [17]: gradual increase in the apoptosis rate
			5.82 ± 0.22	Clc1ccc2nc(N(Cc3ccccc3)Cc3ccccc3)sc2c1 [D2, N,N-dibenzyl-6-chlorobenzo[d]thiazol-2-amine]			significant inhibitory effects	46.9 ± 2.71	43.6 ± 1.39	40.3 ± 1.06	significant inhibitory effects	24.3 ± 3.1	
